Laboratory results as given in patent publication US20130202659A1, “POLYMER-AGENT CONJUGATES, PARTICLES, COMPOSITIONS, AND RELATED METHODS OF USE” (CERULEAN PHARMA INC., priority 2012, published 2013).

Legend:
SK-OV-3 tumor = assay: In vivo efficacy, SK-OV-3 ovarian human xenograft model (Example 45); set-up: species or system human (in CD-1 nude mice)
Procedure: SK-OV-3 cells were grown in culture to confluency in RPMI medium containing 10% FBS and 1% penicillin/streptomycin and then resuspended in RPMI (passage 4) for implantation into mice. This suspension of SK-OV-3 cells (density=30×10^6 cells/mL) was implanted into the mammary gland of female CD-1 nude mice on Day 1. […]

[1] = Tolerability in ADR-RES tumor-bearing mice (Example 59); format: in vivo, mouse
Procedure: The treatments were administered IV into the tail vein at a dose volume of 10 and 20 mL/kg for 30 and 60 mg/kg respectively, beginning on post-implantation day 47, when the mean tumor volume was ca. 150 mm^3. Body weight and tumor volume were measured for three times a week during the dosing period and twice a week thereafter. In addition, animals were also monitored for any morbidity and adverse effects for three times a week during the dosing period and twice a week thereafter.
Tumor volume was calculated with (width×width×length)/2 mm^3 formula. […] Tumor growth inhibition (TGI) is represented as % and calculated as (1−(treated tumor volume/control tumor volume))×100 when the control group mean tumor volume reached ≧1000 mm^3. Tumor growth delay (TGD) is calculated by subtracting the day when the vehicle treated group reached the maximum tumor size 1000 mm^3 from the day when the treatment group tumor size reached 1000 mm^3.

[2] = weekly schedule, 3 injections; cited from earlier work
B16.F10 tumor [3] = assay: Efficacy in B16.F10 murine melanoma model (Example 43); format: in vivo, mouse
Procedure: 7) PEGylated docetaxel-5050 PLGA-β-acetyl nanoparticles (mPEG(5k)-PLGA at 40 wt %) administered at a dose of 15 mg/kg. Refer to table for detailed description of formulations.
Tumor volume was calculated with the following equation: (width×width×length)/2 mm^3.

[4] = Tolerability in H1299 tumor-bearing mice (Example 60); format: in vivo, mouse
Procedure: (§1) The treatments were administered IV into the tail vein at a dose volume of 10 and 20 mL/kg for 30 and 60 mg/kg respectively, beginning on post-implantation day 30 when the mean tumor volume was ca. 170 mm^3 (small tumor group), and on day 37 when the mean tumor volume was ca. 440 mm^3 (large tumor group). Body weight and tumor volume were measured for three times a week during the dosing period and twice a week thereafter. In addition, animals were also monitored for any morbidity and adverse effects for three times a week during the dosing period and twice a week thereafter.
Tumor volume was calculated with (width×width×length)/2 mm^3 formula. Efficacy was determined by tumor growth inhibition (TGI), tumor growth delay (TGD) and survival. Tumor growth inhibition (TGI) is represented as % and calculated as (1−(treated tumor volume/control tumor volume))×100 when the control group mean tumor volume reached ≧1000 mm^3. Tumor growth delay (TGD) is calculated by subtracting the day when the vehicle treated group reached the maximum tumor size 1000 mm^3 from the day when the treatment group tumor size reached 1000 mm^3.

MDA-MB-435 tumor = assay: MDA-MB-435 breast xenograft model, delayed treatment (Example 93); conditions: mouse, in vivo
Description: See, for example, FIG. 7.

[5] = Body weight changes in A2780 tumor-bearing mice (Example 42); format: in vivo, mouse; conditions: Day 36
Procedure: The stock solution was diluted further with PBS to 1.5 mg/mL (for a dose of 15 mg/kg at 10 mL/kg and 30 mg/kg at 20 mL/kg). This formulation was made within 30 minutes of administration to mice.
The treatments were administered 2 times, on Day 8 and Day 15 (weekly×2 injections) for n=8 mice per group. […] On Day 50, the study was ended for all remaining mice. When removed from the study, mice were euthanized by CO2 inhalation.

[6] = Tolerability in mouse melanoma model B16.F10 (Example 61); format: in vivo; conditions: 15 mg/kg 1/wk×3
Procedure: The treatments were administered IV into the tail vein at a dose volume of 10 ml/kg, beginning on post-implantation day 5, when the mean tumor volume was ca. 60 mm^3. Animals were monitored for any morbidity and adverse effects three times a week. In addition, body weight and tumor volume were also measured three times a week.

HCT-116 tumor = assay: In vivo efficacy, HCT-116 colon xenograft model (Example 44); set-up: species or system human (in CD-1 nude mice); conditions: 30 mg/kg IV weekly×2
Procedure: HCT-116 cells were grown in culture to confluency in McCoy's 5a medium containing 10% FBS and 1% penicillin/streptomycin and then resuspended in McCoy's 5a (passage 4). This suspension of HCT-116 cells (density=3.7×10^6 cells/mL) was implanted subcutaneously above the right hind leg of male CD-1 nude mice on day 1.

[7] = Tolerability in normal male C57BL/6 non-tumor-bearing mice (Example 47); format: in vivo, mouse
Procedure: Treatments were administered intravenously on a q7d×2 schedule, i.e., two treatments seven days apart (the first treatment was on Day one). The study ended on Day 14, six days after the 2nd treatment. Blood was collected for complete blood count (CBC) and serum chemistry. Leg muscles were collected so that nerve degeneration could be assessed from the sciatic nerve.

H1299 tumor = assay: Efficacy in non-small cell lung carcinoma model H1299 (Example 60); format: in vivo, nu/nu mice; conditions: large tumor group, 30 mg/kg
Procedure: H1299 cells were grown in culture to 85-90% confluency in RPMI medium supplemented with 10% fetal bovine serum (FBS), 1% glutamine and 1% penicillin/streptomycin. Cells were removed from the culture flask using 0.05% trypsin (passage=4), re-suspended in RPMI medium (density=50×10^6 cells/mL) and were implanted subcutaneously (5×10^6 cells in 100 μL RPMI medium/mouse) into the mammary fat pad area of male nu/nu mice on day 1.
as §1
Tumor volume was calculated with (width×width×length)/2 mm^3 formula. Efficacy was determined by tumor growth inhibition (TGI), tumor growth delay (TGD) and survival. Tumor growth inhibition (TGI) is represented as % and calculated as (1−(treated tumor volume/control tumor volume))×100 when the control group mean tumor volume reached ≧1000 mm^3. […]

murine melanoma tumor = assay: Efficacy and survival in aggressive murine melanoma model at MTD (Example 92); format: in vivo, mouse; conditions: dosed at respective MTD
Procedure: Thus, the sustained release properties of a particle according to exemplary particle 1 supports less frequent dosing of patients. Methods: Tumor-bearing mice were injected with a particle according to exemplary particle 1 or docetaxel at their respective MTD. See, for example, FIGS. 6a and 6b.

[8] = mouse, in vivo, 17 day post-implantation
Procedure: The stock solution was diluted further with PBS to 0.6, 1.5, 3, 4.5 and 6 mg/mL (for a corresponding dose of 6, 15, 30, 45 and 60 mg/kg) so that all the groups received the same amount of ethanol, polysorbate 80, water and PBS. […] 5) PEGylated O-acetyl-5050-PLGA nanoparticle vehicle at the highest concentration of 6 mg/mL.
The treatments were administered IV into the tail vein at a dose volume of 10 mL/kg, beginning on post-implantation Day 5, when the mean tumor volume was 55 mm^3. The treatments were administered 4 times, on Days 5, 8, 12 and 15 (biweekly×4 injections). On Day 17 post-tumor implantation, mice were euthanized by CO2 inhalation according to the procedure guideline. Blood was collected by cardiac puncture and put into ethylenediaminetetraacetic acid (EDTA) or serum separation blood collection tubes. Whole blood was analyzed on the day of collection for CBC analyses. After the blood clotted and was centrifuged, serum was frozen immediately on dry ice for serum chemistry analyses.
Tolerability was determined by changes in body weight, expressed as a percent of the initial body weight on post-implantation Day 5. […] Other indices of toxicity, complete blood count (CBC) and serum chemistry were determined from blood collected from animals that were euthanized on Day 17 by CO2 inhalation, according to the procedure guideline.

B16.F10 tumor [9] = assay: In vivo efficacy, B16.F10 mouse model of melanoma (Example 39)
Procedure: The treatments were administered on days 5, 8, and 12 (biweekly×3 injections) post tumor implantation. Health status of the animals was monitored and tumor size was measured three times a week. […] Tumors from each animal were dissected and tumor size was measured. Tumor volume was calculated using the formula: (width×width×length)/2 mm^3.

B 16.F10 cells = assay: CellTiter-Glo Luminescent Cell Viability Assay, cytotoxic effect of nanoparticles; format: cell-based, mouse; conditions: 24, 48 and 72 hours
Procedure: B 16.F10 cells, grown to 85-90% confluency in 150 cm^2 flasks (passage<30), were resuspended in media (MEM-alpha, 10% HI-FBS, lx antibiotic-antimycotic) and added to 96-well opaque-clear bottom plates at a concentration of 1500 cells/well in 200 μL/well. The cells were incubated at 37° C. with 5% CO2 for 24 hours. The following day, serial dilutions of 2× concentrated particles and 2× concentrated free drug were made in 12-well reservoirs with media to specified concentrations. The media in the plates was replaced with 100 μL of fresh media and 100 μL of the corresponding serially diluted drug. Three sets of plates were prepared with duplicate treatments. Following 24, 48 and 72 hours of incubation at 37° C. with 5% CO2, the media in the plates was replaced with 100 μL of fresh media and 100 μL of CTG solution, and then incubated for 5 minutes on a plate shaker at room temperature set to 450 rpm and allowed to rest for 15 minutes. Viable cells were measured by luminescence using a microtiter plate reader. The data was plotted as % viability vs. concentration and standardized to untreated cells.

[10] = large tumor group, 30 mg/kg 1/wk×2
[11] = large tumor group, 60 mg/kg 1/wk×2
[12] = small tumor group, 30 mg/kg 1/wk×2
[13] = small tumor group, 60 mg/kg 1/wk×2

In the case of CC(=O)O[C@@]12CO[C@@H]1C[C@H](O)[C@@]1(C)C(=O)[C@H](O)C3=C(C)[C@@H](OC(=O)[C@H](O)[C@@H](NC(=O)OC(C)(C)C)c4ccccc4)C[C@@](O)([C@@H](OC(=O)c4ccccc4)[C@H]21)C3(C)C [Free docetaxel, docetaxel], the “tumor growth delay (TGD)” value (SK-OV-3 tumor; 15 mg/kg weekly×2) is reported as 18 days, the “tumor growth delay (TGD)” value (SK-OV-3 tumor; 30 mg/kg weekly×2) is reported as 42 days and the “Maximum body weight loss” value ([1]; 30 mg/kg 1/biwk×3) is reported as 9%. The hind limb paralysis ([1]; 30 mg/kg 1/biwk×3) was “did not cause any significant body weight loss (<10%) or hind limb paralysis”, the “Maximum body weight loss” value ([1]; 30 mg/kg 1/wk×2) was 6% and the hind limb paralysis ([1]; 30 mg/kg 1/wk×2) was “did not cause any significant body weight loss (<10%) or hind limb paralysis”. For the same compound, the “Maximum body weight loss” value ([1]; 60 mg/kg 1/biwk×3) was 21%, the hind limb paralysis ([1]; 60 mg/kg 1/biwk×3) was “severe hind limb paralysis” and the “Maximum body weight loss” value ([1]; 60 mg/kg 1/wk×2) was 23%. For the same compound, the hind limb paralysis ([1]; 60 mg/kg 1/wk×2) was “hind limb paralysis after the 2nd injection followed by recovery”, the “known maximum tolerated dose (MTD)” value [2] was 30 mg/kg and the “tumor growth delay (TGD)” value (B16.F10 tumor [3]; q3dq4dx3, 15 mg/kg) was 12 days. The “tumor growth delay (TGD)” value (B16.F10 tumor [3]; q7dx3, 30 mg/kg) was 17 days, the “day tumor volume end point reached” value (B16.F10 tumor [3]; q14dx2, 60 mg/kg) was 29 days and the “tumor growth inhibition (TGI)” value (B16.F10 tumor [3]; q14dx2, 60 mg/kg) was 71%. The “Maximum body weight loss” value [4, 10] was 19%, the hind limb paralysis [4, 10] was “did not cause any significant body weight loss or hind limb paralysis” and the “Maximum body weight loss” value [4, 11] was “significant body weight loss”. The hind limb paralysis [4, 11] was “severe hind limb paralysis”, the “Maximum body weight loss” value [4, 12] was 18% and the hind limb paralysis [4, 12] was “did not cause any significant body weight loss or hind limb paralysis”. For the same compound, the “Maximum body weight loss” value [4, 13] was “significant body weight loss”, the hind limb paralysis [4, 13] was “severe hind limb paralysis” and the “effect on tumors allowed to grow to 500 mm^3 (delayed treatment)” value (MDA-MB-435 tumor) was “unable to suppress tumor growth”. For the same compound, the “body weight, % of initial” value ([5]; 15 mg/kg) was 113±11%, the “body weight, % of initial” value ([5]; 30 mg/kg) was 105±9% and the “Maximum body weight loss” value [6] was 2%. The “tumor growth inhibition (TGI)” value (HCT-116 tumor) was 88%, the TGD (HCT-116 tumor; end point 1000 mm^3) was 22 days and the Ataxia ([7]; 30 mg/kg q7d×2) was 0%. The Lymphocyte mean ([7]; 30 mg/kg q7d×2, Day 14) was 4350 cells/A, the Neutrophil mean ([7]; 30 mg/kg q7d×2, Day 14) was 556 cells/A and the Ataxia ([7]; 45 mg/kg q7d×2) was 20%. The Lymphocyte mean ([7]; 45 mg/kg q7d×2, Day 14) was 6780 cells/A, the Neutrophil mean ([7]; 45 mg/kg q7d×2, Day 14) was 752 cells/A and the Ataxia ([7]; 60 mg/kg q7d×2) was 100%. For the same compound, the “weight lost after the second treatment, by the end of the study” value ([7]; 60 mg/kg q7d×2) was 19%, the Lymphocyte mean ([7]; 60 mg/kg q7d×2, Day 14) was 5590 cells/A and the Neutrophil mean ([7]; 60 mg/kg q7d×2, Day 14) was 470 cells/A. For the same compound, the “effect on serum chemistry” value ([7]; doses up to 60 mg/kg) was “did not affect any serum chemistry parameter”, the tumor shrinkage (H1299 tumor) was “no tumor shrinkage” and the “tumor growth with every other week dosing” value (murine melanoma tumor) was “not sufficient to suppress tumor growth”. The “dose up to which no serum chemistry parameter was affected” value [8] was 30 mg/kg.

For CC(=O)O[C@H]1C(=O)[C@@]2(C)[C@H]([C@H](OC(=O)c3ccccc3)[C@]3(O)C[C@H](OC(=O)[C@H](O)[C@@H](NC(=O)c4ccccc4)c4ccccc4)C(C)=C1C3(C)C)[C@]1(OC(C)=O)CO[C@@H]1C[C@@H]2O [Free paclitaxel, paclitaxel], the “Day-17 TGI” value (B16.F10 tumor [9]; 6 mg/kg IV days 5, 8, 12) was 57% and the “Day-17 TGI” value (B16.F10 tumor [9]; 15 mg/kg IV days 5, 8, 12) was 83%.

For OC[C@H]1O[C@@](CO)(O[C@H]2O[C@H](CO)[C@@H](O)[C@H](O)[C@H]2O)[C@@H](O)[C@@H]1O [Sucrose, sucrose], the “Recon. Solution Appearance” value (nanoparticles A, sucrose cycle, lyoprotectant 100 mg/mL, polymer 31.25 mg/mL, 3.2:1) was “cloudy”.

With OC[C@H]1O[C@@H]2O[C@H]3[C@H](O)[C@@H](O)[C@@H](O[C@H]4[C@H](O)[C@@H](O)[C@@H](O[C@H]5[C@H](O)[C@@H](O)[C@@H](O[C@H]6[C@H](O)[C@@H](O)[C@@H](O[C@H]7[C@H](O)[C@@H](O)[C@@H](O[C@H]8[C@H](O)[C@@H](O)[C@@H](O[C@H]1[C@H](O)[C@H]2O)O[C@@H]8CO)O[C@@H]7CO)O[C@@H]6CO)O[C@@H]5CO)O[C@@H]4CO)O[C@@H]3CO [β-CD, β-cyclodextrin] the “solubility of the cyclodextrin in the formulation” value (40 mg/mL) was “Beta-CD is not soluble at this”.

In the case of “bis(docetaxel) glutamate-5050 PLGA-O-acetyl”, the “growth inhibition of B 16.F10 cells” value (B 16.F10 cells) is reported as “inhibited the growth of B 16.F10 cells in a dose and time dependent manner”.

With docetaxel-5050 PLGA-O-acetyl the “growth inhibition of B 16.F10 cells” value (B 16.F10 cells) was “inhibited the growth of B 16.F10 cells in a dose and time dependent manner”.

In the case of doxorubicin 5050 PLGA amide, the “growth inhibition of B 16.F10 cells” value (B 16.F10 cells) is reported as “inhibited the growth of B 16.F10 cells in a dose and time dependent manner”.

In the case of paclitaxel-5050 PLGA-O-acetyl, the “growth inhibition of B 16.F10 cells” value (B 16.F10 cells) is reported as “inhibited the growth of B 16.F10 cells in a dose and time dependent manner”.
